Results as given in patent publication US7504517B2, “Kv1.5 potassium channel inhibitors” (Wyeth, priority 2006, dated 2009).

How the values were obtained:
[1] = target: T1, Kv1.5 (Homo sapiens, UniProt P22460); test: Kv1.5 Patch Clamp EP; type: cell-based; details: whole cell patch clamp
T1 construct: expressed in transfected cells; host or cells: HEK or LTK- cells
Description: The external solution is standard Tyrodes solution. […] Inhibition was measured at the end of the 1 second pulses and expressed relative to controls. Initial Kv1.5 inhibition is estimated by single point determinations done at 1 μM.

[2] = target: HERG (Homo sapiens, UniProt Q12809); test: HERG Patch Clamp EP; details: for inhibition at 10 µM: human, HEK cells stably overexpressing HERG
HERG, sequence (Q12809 whole entry): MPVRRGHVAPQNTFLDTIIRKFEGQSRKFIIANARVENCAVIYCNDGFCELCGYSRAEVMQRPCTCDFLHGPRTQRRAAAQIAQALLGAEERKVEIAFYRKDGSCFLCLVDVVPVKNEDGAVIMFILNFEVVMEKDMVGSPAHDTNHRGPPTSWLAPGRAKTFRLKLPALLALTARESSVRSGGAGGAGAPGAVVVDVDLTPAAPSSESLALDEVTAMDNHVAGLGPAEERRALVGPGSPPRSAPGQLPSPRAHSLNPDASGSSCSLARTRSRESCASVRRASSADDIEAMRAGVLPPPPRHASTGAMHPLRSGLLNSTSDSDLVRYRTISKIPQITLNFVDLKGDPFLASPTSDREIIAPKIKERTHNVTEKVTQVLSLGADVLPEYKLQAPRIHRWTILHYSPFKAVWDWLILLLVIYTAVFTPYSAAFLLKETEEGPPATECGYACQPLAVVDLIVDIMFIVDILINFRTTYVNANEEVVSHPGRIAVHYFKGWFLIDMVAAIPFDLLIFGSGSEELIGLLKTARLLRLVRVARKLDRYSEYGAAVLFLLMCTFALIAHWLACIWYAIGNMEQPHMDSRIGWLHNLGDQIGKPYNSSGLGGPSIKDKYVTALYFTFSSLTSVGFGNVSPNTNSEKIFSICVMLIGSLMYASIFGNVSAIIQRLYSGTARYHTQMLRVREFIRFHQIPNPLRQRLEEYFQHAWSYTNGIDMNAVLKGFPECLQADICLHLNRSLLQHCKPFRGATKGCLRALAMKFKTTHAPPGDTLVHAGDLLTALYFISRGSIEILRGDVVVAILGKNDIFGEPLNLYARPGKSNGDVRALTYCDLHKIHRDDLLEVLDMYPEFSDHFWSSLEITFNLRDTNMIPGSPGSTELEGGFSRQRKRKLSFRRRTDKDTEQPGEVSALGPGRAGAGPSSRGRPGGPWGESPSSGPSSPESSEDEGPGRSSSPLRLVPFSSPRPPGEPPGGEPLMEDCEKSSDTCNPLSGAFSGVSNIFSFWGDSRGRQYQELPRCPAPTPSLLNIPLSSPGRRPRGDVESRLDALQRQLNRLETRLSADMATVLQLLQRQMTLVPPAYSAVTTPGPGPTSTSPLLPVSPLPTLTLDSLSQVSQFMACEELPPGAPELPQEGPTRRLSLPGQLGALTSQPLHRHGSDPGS

[3] = tested on: L-type calcium channels; test: FLIPR L-Type Calcium Channel Assay; type: cell-based, murine; details: HL-1 cells expressing endogenous L-type calcium channels; calcium influx after 20 mM KCl; read-out: L-type Ca^2+ IC50
Description: 50 μL per well test compounds are added to the plates and further incubated for 15 min. in a 5% CO2 37° C. incubator. All final solutions contain the anion exchange inhibitor, probenecid (2.5 mM). The 96-well plates are then placed in the center position of the FLIPR 1 (Fluorometric Imaging Plate Reader, Molecular Devices Corporation). Cell monolayers in each well are simultaneously illuminated at 488 nm with an Argon ion laser, and fluorescence emission is monitored using a 510-570 nm bandpass filter and a cooled CCD camera. To depolarize the plasma membrane and activate L-type calcium channels, 50 μL per well of 20 mM KCl (final concentration) are dispensed simultaneously to all 96 wells using the FLIPR's automatic 96-well pipettor. Fluorescence measurements are captured for 5 min. following KCl addition. Calcium influx, expressed as % control, is calculated for each concentration of test compound and concentration-response curves and IC50 values are generated using GraphPad Prism 4.0.

[4] = 1.0 μM, single point, Kv1.5 stably over expressed in HEK or LTK- cells

T1 sequence (P22460 whole entry): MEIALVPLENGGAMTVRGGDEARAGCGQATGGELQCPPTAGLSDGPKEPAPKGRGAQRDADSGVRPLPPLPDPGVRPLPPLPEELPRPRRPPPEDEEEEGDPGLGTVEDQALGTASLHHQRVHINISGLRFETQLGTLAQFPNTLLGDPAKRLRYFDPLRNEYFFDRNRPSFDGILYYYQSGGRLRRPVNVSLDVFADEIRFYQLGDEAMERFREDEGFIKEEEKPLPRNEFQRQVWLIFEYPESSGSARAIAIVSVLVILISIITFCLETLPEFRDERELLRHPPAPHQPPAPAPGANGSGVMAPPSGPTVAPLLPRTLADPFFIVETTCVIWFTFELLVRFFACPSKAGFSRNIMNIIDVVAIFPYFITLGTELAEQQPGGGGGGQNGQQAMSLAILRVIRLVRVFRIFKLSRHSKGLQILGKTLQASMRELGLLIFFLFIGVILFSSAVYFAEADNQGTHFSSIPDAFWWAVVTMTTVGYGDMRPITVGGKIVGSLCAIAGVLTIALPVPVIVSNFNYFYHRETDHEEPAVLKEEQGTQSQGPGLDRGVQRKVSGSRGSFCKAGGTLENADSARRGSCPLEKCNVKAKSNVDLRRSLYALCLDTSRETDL

Molecule	inhibition at 1 µM [1, 4] [%]	inhibition at 10 µM [2] [%]	IC50 [3] [µM]	IC50 ([1]; HEK or LTK- cells, at least four concentrations, n=3) [µM]	IC50 [2] [µM]	Kv1.5% inhibition @ 1.0 μM [1, 4] [%]
COc1ccc(CCN2C(=O)N(NS(=O)(=O)CF)CC2c2ccc3c(c2)OCCO3)cc1 (stereo not drawn) [Compound 37, 1-(Fluoromethylsulfonylamino)-3-[2-(4-methoxyphenyl)ethyl]-4-[(2,3dihydro-benzo[b][1,4]dioxin-6-yl)]-2-imidazolidinone]	87	6	30			
CCN(CC)c1ccc(C2CN(NS(C)(=O)=O)C(=O)N2CCc2ccc(OC)cc2)cc1 (stereo not drawn) [Compound 25, 1-(Methylsulfonylamino)-3-[2-(4-methoxyphenyl)ethyl]-4-[(4-diethylamino)-phenyl]-2-imidazolidinone]	84	31	28			
COc1ccc(CCN2C(=O)N(NS(=O)(=O)CCS(C)(=O)=O)CC2c2ccc(C3CC3)cc2)cc1 (stereo not drawn) [Compound 114, N-{4-(4-cyclopropylphenyl)-3-[2-(4-methoxyphenyl)ethyl]-2-oxoimidazolidin-1-yl}-2-(methylsulfonyl)ethanesulfonamide]	75	55	15			
COc1ccc(CCN2C(=O)N(NCc3ccc(N(C)C)cc3)CC2c2ccc(C)c(C)c2)cc1 (stereo not drawn) [Compound 92, 1-[(4-(Dimethylamino)phenylmethyl)amino]-3-[2-(4-methoxyphenyl)ethyl]-4-(3,4-dimethylphenyl)-2-imidazolidinone]	95	58	30	0.353	5.6	
COc1ccc(CCN2C(=O)N(NS(=O)(=O)CF)CC2c2ccc(C3CC3)cc2)cc1 (stereo not drawn) [Compound 34, 1-(Fluoromethylsulfonylamino)-3-[2-(4-methoxyphenyl)ethyl]-4-(4-cyclopropyl-phenyl)-2-imidazolidinone]	98	38	18			
COc1ccc(CCN2C(=O)N(NS(=O)(=O)Cc3cccnc3)CC2c2ccc(C3CC3)cc2)cc1 (stereo not drawn) [Compound 64, 1-[(Pyridin-3-yl)methanesulfonyl]amino-3-[(4-methoxyphenyl)ethyl]-4-(4-cyclopropylphenyl)-imidazolidin-2-one]	96	55	14			
COc1ccc(CCN2C(=O)N(NC(=O)c3ccco3)CC2c2ccc(C)c(C)c2)cc1 (stereo not drawn) [Compound 74, 1-(2-Furanoylamino)-3-[2-(4-Methoxyphenyl)ethyl]-4-(3,4-dimethylphenyl)-2-imidazolidinone]	85		25			
COC(=O)c1ccc(NN2CC(c3ccc(C)c(C)c3)N(CCc3ccc(OC)cc3)C2=O)c(N)c1 (stereo not drawn) [Compound 135, methyl 3-amino-4-({4-(3,4-dimethylphenyl)-3-[2-(4-methoxyphenyl)ethyl]-2-oxoimidazolidin-1-yl}amino)benzoate]	53		8			
COc1ccc(CCN2C(=O)N(N)CC2c2ccc(C)c(C)c2)cc1 (stereo not drawn) [Compound 1, 1-Amino-3-[2-(4-methoxyphenyl)ethyl]-4-(3,4-dimethylphenyl)-2-imidazolidinone]	59		5.5			
COc1ccc(CCN2C(=O)N(NS(C)(=O)=O)CC2C2CCCCC2)cc1 (stereo not drawn) [Compound 145, N-{4-cyclohexyl-3-[2-(4-methoxyphenyl)ethyl]-2-oxoimidazolidin-1-yl}methanesulfonamide]	16	11				
COc1ccc(CCN2C(=O)N(NCc3ccc(-n4ccnc4)cc3)CC2c2ccc(C)c(C)c2)cc1 (stereo not drawn) [Compound 98, 1-[(4-(1H-imidazol-1-yl)phenylmethyl)amino]-3-[2-(4-methoxyphenyl)ethyl]-4-(3,4-dimethylphenyl)-2-imidazolidinone]	83		4.8			
COc1ccc(CCN2C(=O)N(NS(C)(=O)=O)CC2c2ccc(Cl)cc2)cc1 (stereo not drawn) [Compound 21, 1-(Methylsulfonylamino)-3-[2-(4-methoxyphenyl)ethyl]-4-(4-chlorophenyl)-2-imidazolidinone]	72		26			
CCCCC1CN(NS(C)(=O)=O)C(=O)N1CCc1ccc(OC)cc1 (stereo not drawn) [Compound 128, N-{4-butyl-3-[2-(4-methoxyphenyl)ethyl]-2-oxoimidazolidin-1-yl}methanesulfonamide]	8	19				
COc1ccc(CCN2C(=O)N(NCCc3ccccc3)CC2c2ccc(C)c(C)c2)cc1 (stereo not drawn) [Compound 97, 1-[(Phenylethyl)amino]-3-[2-(4-methoxyphenyl)ethyl]-4-(3,4-dimethylphenyl)-2-imidazolidinone]	81		3.5			
COc1ccc(CCN2C(=O)N(NCc3ccc(N(C)C)cc3)CC2c2ccc(C(C)(C)C)cc2)cc1 (stereo not drawn) [Compound 91, 1-[(4-(Dimethylamino)phenylmethyl)amino]-3-[2-(4-methoxyphenyl)ethyl]-4-[4-(tert-butyl)phenyl]-2-imidazolidinone]	85		4			
COc1ccc(CCN2C(=O)N(NCc3ccccc3)CC2c2ccc(C(C)(C)C)cc2)cc1 (stereo not drawn) [Compound 87, 1-Benzylamino-3-[2-(4-methoxyphenyl)ethyl]-4-[4-(tert-butyl)phenyl]-2-imidazolidinone]	57		6			
COc1ccc(C2CN(NS(C)(=O)=O)C(=O)N2CCc2ccc(OC(F)F)cc2)cc1 (stereo not drawn) [Compound 142, N-[3-{2-[4-(difluoromethoxy)phenyl]ethyl}-4-(4-methoxyphenyl)-2-oxoimidazolidin-1-yl]methanesulfonamide]	40	91				
COc1ccc(CCN2C(=O)N(NC(=O)c3ccno3)CC2c2ccc(C)c(C)c2)cc1 (stereo not drawn) [Compound 78, 1-(Isoxazol-5-ylcarbonylamino)-3-[2-(4-methoxyphenyl)-ethyl]-4-(3,4-dimethylphenyl)-2-imidazolidinone]	75		11			
COc1ccc(CCN2C(=O)N(NC(=O)CN(C)Cc3ccccc3)CC2c2ccc(C(C)(C)C)cc2)cc1 (stereo not drawn) [Compound 81, 2-(Benzylmethylamino)-N-{4-[4-(tert-butyl)phenyl]-3-[2-(4-methoxyphenyl)-ethyl]-2-oxo-imidazolidin-1-yl}-acetamide]	78		4			
tert-butyl [2-({4-(4-tert-butylphenyl)-3-[2-(4-methoxyphenyl)ethyl]-2-oxoimidazolidin-1-yl}amino)-2-oxoethyl]methylcarbamate [Compound 109]			4.6			71
CCC1(CC)CN(NS(C)(=O)=O)C(=O)N1CCc1ccc(OC)cc1 [Compound 111, N-{4,4-diethyl-3-[2-(4-methoxyphenyl)ethyl]-2-oxoimidazolidin-1-yl}methanesulfonamide]	9	33				
COc1ccc(CCN2C(=O)N(NS(=O)(=O)CCl)CC2c2ccc(C(C)(C)C)cc2)cc1 (stereo not drawn) [Compound 39, 1-(Chloromethylsulfonylamino)-3-[2-(4-methoxyphenyl)ethyl]-4-(4-tert-butyl-phenyl)-2-imidazolidinone]	81		12			
COc1ccc(CCN2C(=O)N(NC(=O)C3CC3)CC2c2ccc(C)c(C)c2)cc1 (stereo not drawn) [Compound 72, Cyclopropanecarboxylic acid N-{3-[2-(4-methoxyphenyl)ethyl]-4-(3,4-dimethylphenyl)-2-oxo-imidazolidin-1-yl}-amide]	81		18			
